Laboratory results from PubChem BioAssay AID2060602 (Molecular Pharmacology Branch, DTP, NCI, 2025).
pIC50: −log10 of the molar value. Several values for one entry are separate records, joined by “and”; a condition that tells them apart may be missing. Equal entries are not always repeated. One block for each molecule: values may come before it.

Tested on: 648629-189-R-J1-PDC complex spheroids viability
Assay: Anticancer human tumor 648629-189-R-J1-PDC patient-derived bladder carcinoma cell line growth inhibition [CLK]
Conditions: for viability, T/C: stronger effect = lower value
Method in brief: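 Multi-cell-type spheroids combined patient-derived tumor cells with HUVEC endothelial cells and human mesenchymal stem cells. Paired agents were dosed in half-log steps down from about clinical Cmax, or from 10 microM where Cmax was unknown.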

[1] = curve of first compound, second compound 0.0316 µM
[2] = curve of first compound, second compound 0.1 µM
[3] = curve of first compound, second compound 0.316 µM
[4] = curve of first compound, second compound 1 µM
[5] = curve of first compound, second compound 3.16 µM
[6] = curve of first compound, second compound 10 µM
[7] = second compound 0.0316 µM, first compound 0.0316 µM
[8] = second compound 0.0316 µM, first compound 0.1 µM
[9] = second compound 0.0316 µM, first compound 0.316 µM
[10] = second compound 0.0316 µM, first compound 1 µM
[11] = second compound 0.0316 µM, first compound 3.16 µM
[12] = second compound 0.0316 µM, first compound 10 µM
[13] = second compound 0.1 µM, first compound 0.0316 µM
[14] = second compound 0.1 µM, first compound 0.1 µM
[15] = second compound 0.1 µM, first compound 0.316 µM
[16] = second compound 0.1 µM, first compound 1 µM
[17] = second compound 0.1 µM, first compound 3.16 µM
[18] = second compound 0.1 µM, first compound 10 µM
[19] = second compound 0.316 µM, first compound 0.0316 µM
[20] = second compound 0.316 µM, first compound 0.1 µM
[21] = second compound 0.316 µM, first compound 0.316 µM
[22] = second compound 0.316 µM, first compound 1 µM
[23] = second compound 0.316 µM, first compound 3.16 µM
[24] = second compound 0.316 µM, first compound 10 µM
[25] = second compound 1 µM, first compound 0.0316 µM
[26] = second compound 1 µM, first compound 0.1 µM
[27] = second compound 1 µM, first compound 0.316 µM
[28] = second compound 1 µM, first compound 1 µM
[29] = second compound 1 µM, first compound 3.16 µM
[30] = second compound 1 µM, first compound 10 µM
[31] = second compound 3.16 µM, first compound 0.0316 µM
[32] = second compound 3.16 µM, first compound 0.1 µM
[33] = second compound 3.16 µM, first compound 0.316 µM
[34] = second compound 3.16 µM, first compound 1 µM
[35] = second compound 3.16 µM, first compound 3.16 µM
[36] = second compound 3.16 µM, first compound 10 µM
[37] = second compound 10 µM, first compound 0.0316 µM
[38] = second compound 10 µM, first compound 0.1 µM
[39] = second compound 10 µM, first compound 0.316 µM
[40] = second compound 10 µM, first compound 1 µM
[41] = second compound 10 µM, first compound 3.16 µM
[42] = second compound 10 µM, first compound 10 µM
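Throughout, for viability, T/C: drug exposure lasted seven days before viability readout; 100% = DMSO vehicle control wells.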

SMILES: Nc1ccn(C2OC(CO)C(O)C2(F)F)c(=O)n1 (centres undefined) + CN1CCN(c2cc(C(=O)Nc3cc4cc(-c5cnn(C)c5)ccc4cn3)ccn2)CC1
pIC50 [1]: 7.28
pIC50 [2]: 7.30
pIC50 [3]: > 7.50
pIC50 [4]: > 7.50
pIC50 [5]: > 7.50
pIC50 [6]: > 7.50
viability, T/C [7]: 65.2%
viability, T/C [8]: 31.1%
viability, T/C [9]: 11.9%
viability, T/C [10]: 5.88%
viability, T/C [11]: 5.69%
viability, T/C [12]: 4.49%
viability, T/C [13]: 67.7%
viability, T/C [14]: 22.8%
viability, T/C [15]: 10.1%
viability, T/C [16]: 5.67%
viability, T/C [17]: 4.53%
viability, T/C [18]: 3.3%
viability, T/C [19]: 32.1%
viability, T/C [20]: 22.7%
viability, T/C [21]: 13%
viability, T/C [22]: 7.45%
viability, T/C [23]: 9.18%
viability, T/C [24]: 5.35%
viability, T/C [25]: 0.19%
viability, T/C [26]: 0.38%
viability, T/C [27]: 1.02%
viability, T/C [28]: 0.31%
viability, T/C [29]: 0.14%
viability, T/C [30]: 1.01%
viability, T/C [31]: 0.09%
viability, T/C [32]: 1.1%
viability, T/C [33]: 0.11%
viability, T/C [34]: 0.09%
viability, T/C [35]: 0.1%
viability, T/C [36]: 0.39%
viability, T/C [37]: 0.12%
viability, T/C [38]: 0.13%
viability, T/C [39]: 0.17%
viability, T/C [40]: 0.17%
viability, T/C [41]: 0.28%
viability, T/C [42]: 0.17%

SMILES: O=c1[nH]cc(F)c(=O)[nH]1
viability, T/C (compound 0.0316 µM): 101% and 97.3%
viability, T/C (compound 0.1 µM): 92.7% and 84.2%
viability, T/C (compound 0.316 µM): 80.1% and 69.3%
viability, T/C (compound 1 µM): 57.8% and 36%
viability, T/C (compound 3.16 µM): 29.1% and 31.9%
viability, T/C (compound 10 µM): 19.3% and 26.1%
pIC50 (curve of compound): 5.88 and 6.20

SMILES: COc1cccc2c1C(=O)c1c(O)c3c(c(O)c1C2=O)CC(O)(C(=O)CO)CC3OC1CC(N)C(O)C(C)O1 (centres undefined) + CN1CCN(c2cc(C(=O)Nc3cc4cc(-c5cnn(C)c5)ccc4cn3)ccn2)CC1
pIC50 [1]: > 7.50
pIC50 [2]: > 7.50
pIC50 [3]: > 7.50
pIC50 [4]: > 7.50
pIC50 [5]: > 7.50
pIC50 [6]: > 7.50
viability, T/C [7]: 22.1%
viability, T/C [8]: 17.5%
viability, T/C [9]: 7.83%
viability, T/C [10]: 0.53%
viability, T/C [11]: 0.16%
viability, T/C [12]: 1.13%
viability, T/C [13]: 16.5%
viability, T/C [14]: 14.2%
viability, T/C [15]: 5%
viability, T/C [16]: 0.45%
viability, T/C [17]: 0.14%
viability, T/C [18]: 0.19%
viability, T/C [19]: 16.5%
viability, T/C [20]: 13.5%
viability, T/C [21]: 4.02%
viability, T/C [22]: 0.15%
viability, T/C [23]: 0.1%
viability, T/C [24]: 0.12%
viability, T/C [25]: 0.16%
viability, T/C [26]: 0.14%
viability, T/C [27]: 0.14%
viability, T/C [28]: 0.08%
viability, T/C [29]: 0.11%
viability, T/C [30]: 0.08%
viability, T/C [31]: 0.06%
viability, T/C [32]: 0.1%
viability, T/C [33]: 0.09%
viability, T/C [34]: 0.07%
viability, T/C [35]: 0.09%
viability, T/C [36]: 0.08%
viability, T/C [37]: 0.05%
viability, T/C [38]: 0.61%
viability, T/C [39]: 0.11%
viability, T/C [40]: 0.12%
viability, T/C [41]: 0.11%
viability, T/C [42]: 0.1%

Continued, in another order:

pIC50 [1]: < 5.00
pIC50 [2]: < 5.00
pIC50 [3]: > 7.50
pIC50 [4]: > 7.50
pIC50 [5]: > 7.50
pIC50 [6]: > 7.50
SMILES: CC1(C)CCC(CN2CCN(c3ccc(C(=O)NS(=O)(=O)c4ccc(NCC5CCOCC5)c([N+](=O)[O-])c4)c(Oc4cnc5[nH]ccc5c4)c3)CC2)=C(c2ccc(Cl)cc2)C1 + CNC(=O)c1ccc(Nc2nc(OC3CCCC3)c3c(-c4ccc5nc(C)oc5c4)c[nH]c3n2)c(OC)c1
viability, T/C [7]: 100%
viability, T/C [8]: 114%
viability, T/C [9]: 108%
viability, T/C [10]: 106%
viability, T/C [11]: 85.3%
viability, T/C [12]: 103%
viability, T/C [13]: 86.5%
viability, T/C [14]: 94%
viability, T/C [15]: 93.4%
viability, T/C [16]: 79.2%
viability, T/C [17]: 71%
viability, T/C [18]: 100%
viability, T/C [19]: 26.3%
viability, T/C [20]: 30.1%
viability, T/C [21]: 23.4%
viability, T/C [22]: 25.6%
viability, T/C [23]: 29.4%
viability, T/C [24]: 19.9%
viability, T/C [25]: 20.7%
viability, T/C [26]: 24.1%
viability, T/C [27]: 20.2%
viability, T/C [28]: 23.4%
viability, T/C [29]: 26.5%
viability, T/C [30]: 21.3%
viability, T/C [31]: 23.1%
viability, T/C [32]: 23.3%
viability, T/C [33]: 23.9%
viability, T/C [34]: 20.2%
viability, T/C [35]: 21.6%
viability, T/C [36]: 17.3%
viability, T/C [37]: 20.9%
viability, T/C [38]: 20.7%
viability, T/C [39]: 19.9%
viability, T/C [40]: 22%
viability, T/C [41]: 23.6%
viability, T/C [42]: 20.4%

pIC50 (curve of compound): < 5.00
SMILES: C=CC(=O)N1CCN(c2nc(=O)n(-c3c(C)ccnc3C(C)C)c3nc(-c4c(O)cccc4F)c(F)cc23)C(C)C1 (centres undefined)
viability, T/C (compound 0.0316 µM): 84.4% and 97.4%
viability, T/C (compound 0.1 µM): 95.1% and 95.9%
viability, T/C (compound 0.316 µM): 99.2% and 102%
viability, T/C (compound 1 µM): 106% and 98.1%
viability, T/C (compound 3.16 µM): 104% and 96.5%
viability, T/C (compound 10 µM): 89.5% and 94.4%

pIC50 [1]: < 5.00
pIC50 [2]: < 5.00
pIC50 [3]: > 7.50
pIC50 [4]: > 7.50
pIC50 [5]: > 7.50
pIC50 [6]: > 7.50
SMILES: CC(CO)NC(=O)c1cc(-c2ccc(Cl)cc2)nn(-c2cnn(C)c2)c1=O (centres undefined) + CNC(=O)c1ccc(Nc2nc(OC3CCCC3)c3c(-c4ccc5nc(C)oc5c4)c[nH]c3n2)c(OC)c1
viability, T/C [7]: 99.5%
viability, T/C [8]: 92.6%
viability, T/C [9]: 117%
viability, T/C [10]: 104%
viability, T/C [11]: 88.9%
viability, T/C [12]: 88.5%
viability, T/C [13]: 90.9%
viability, T/C [14]: 87.7%
viability, T/C [15]: 90.3%
viability, T/C [16]: 76.9%
viability, T/C [17]: 90.9%
viability, T/C [18]: 82.8%
viability, T/C [19]: 31.1%
viability, T/C [20]: 28.2%
viability, T/C [21]: 29.3%
viability, T/C [22]: 30.2%
viability, T/C [23]: 26.8%
viability, T/C [24]: 21.7%
viability, T/C [25]: 16.6%
viability, T/C [26]: 19.7%
viability, T/C [27]: 18.5%
viability, T/C [28]: 18.8%
viability, T/C [29]: 22.5%
viability, T/C [30]: 18.8%
viability, T/C [31]: 18%
viability, T/C [32]: 21.2%
viability, T/C [33]: 16.1%
viability, T/C [34]: 23%
viability, T/C [35]: 20.8%
viability, T/C [36]: 17.9%
viability, T/C [37]: 18.7%
viability, T/C [38]: 20.2%
viability, T/C [39]: 19.5%
viability, T/C [40]: 21.6%
viability, T/C [41]: 19.2%
viability, T/C [42]: 19.3%

pIC50 [1]: 6.06
pIC50 [2]: 6.27
pIC50 [3]: > 7.50
pIC50 [4]: > 7.50
pIC50 [5]: > 7.50
pIC50 [6]: > 7.50
SMILES: O=c1[nH]cc(F)c(=O)[nH]1 + CNC(=O)c1ccc(Nc2nc(OC3CCCC3)c3c(-c4ccc5nc(C)oc5c4)c[nH]c3n2)c(OC)c1
viability, T/C [7]: 107%
viability, T/C [8]: 95.1%
viability, T/C [9]: 77.4%
viability, T/C [10]: 45.8%
viability, T/C [11]: 33.2%
viability, T/C [12]: 32.5%
viability, T/C [13]: 79.9%
viability, T/C [14]: 86.9%
viability, T/C [15]: 64.8%
viability, T/C [16]: 32.2%
viability, T/C [17]: 23.9%
viability, T/C [18]: 22.9%
viability, T/C [19]: 21%
viability, T/C [20]: 23.6%
viability, T/C [21]: 22.2%
viability, T/C [22]: 11.9%
viability, T/C [23]: 12.8%
viability, T/C [24]: 10.3%
viability, T/C [25]: 15.8%
viability, T/C [26]: 18.7%
viability, T/C [27]: 15.7%
viability, T/C [28]: 11.2%
viability, T/C [29]: 9.79%
viability, T/C [30]: 9.97%
viability, T/C [31]: 21.1%
viability, T/C [32]: 20.4%
viability, T/C [33]: 18.6%
viability, T/C [34]: 10.2%
viability, T/C [35]: 10.9%
viability, T/C [36]: 10.6%
viability, T/C [37]: 17.8%
viability, T/C [38]: 14.8%
viability, T/C [39]: 17.4%
viability, T/C [40]: 11.4%
viability, T/C [41]: 11.5%
viability, T/C [42]: 9.63%
